Where a name gives a salt, the structure may show the parent alone. Read-outs that look alike come from different tables or passages of the source.
How the values were obtained:
[1] = target: T1, H^+ /K^+ ATPase (Oryctolagus cuniculus, UniProt P27112); assay: Isolated H^+ /K^+ ATPase Assay: inhibition of K+ stimulated response in vesicular membranes from rabbit gastric mucosa; assay type: biochemical; details: 10 min preincubation, 15 min at 37° C.
T1 construct: microsomes prepared from a crude homogenate of rabbit gastric mucosa using differential centrifugation; from tissue; host or cells: rabbit gastric mucosa (microsomes, vesicular membranes)
T1 sequence (P27112 2-1035 limits assumed): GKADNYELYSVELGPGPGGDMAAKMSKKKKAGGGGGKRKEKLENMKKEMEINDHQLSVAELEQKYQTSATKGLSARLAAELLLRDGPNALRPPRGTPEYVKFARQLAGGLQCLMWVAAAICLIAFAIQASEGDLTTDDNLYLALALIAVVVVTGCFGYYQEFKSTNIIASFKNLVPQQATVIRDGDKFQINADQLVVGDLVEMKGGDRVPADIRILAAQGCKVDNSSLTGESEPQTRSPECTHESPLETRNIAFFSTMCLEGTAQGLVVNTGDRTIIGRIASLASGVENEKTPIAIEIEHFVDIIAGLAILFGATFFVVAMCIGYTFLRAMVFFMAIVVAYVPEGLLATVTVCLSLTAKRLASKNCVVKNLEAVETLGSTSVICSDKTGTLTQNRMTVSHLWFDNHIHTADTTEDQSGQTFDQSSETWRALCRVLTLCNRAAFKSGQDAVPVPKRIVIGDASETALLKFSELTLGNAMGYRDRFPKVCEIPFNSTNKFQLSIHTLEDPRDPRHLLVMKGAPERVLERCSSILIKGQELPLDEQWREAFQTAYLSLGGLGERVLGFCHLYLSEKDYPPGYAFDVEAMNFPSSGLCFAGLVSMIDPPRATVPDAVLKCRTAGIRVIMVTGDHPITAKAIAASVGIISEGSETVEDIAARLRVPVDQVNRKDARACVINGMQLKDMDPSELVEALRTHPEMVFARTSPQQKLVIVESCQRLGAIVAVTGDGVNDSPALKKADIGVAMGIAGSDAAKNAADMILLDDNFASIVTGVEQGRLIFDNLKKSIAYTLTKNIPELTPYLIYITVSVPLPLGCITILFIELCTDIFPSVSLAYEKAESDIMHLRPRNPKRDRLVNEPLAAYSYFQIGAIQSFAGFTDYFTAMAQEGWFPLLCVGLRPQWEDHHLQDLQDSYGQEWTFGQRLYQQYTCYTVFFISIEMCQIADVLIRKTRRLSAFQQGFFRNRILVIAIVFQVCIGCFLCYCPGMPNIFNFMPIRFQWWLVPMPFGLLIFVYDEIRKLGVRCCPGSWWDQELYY
T1 sequence (P18597 whole entry partner): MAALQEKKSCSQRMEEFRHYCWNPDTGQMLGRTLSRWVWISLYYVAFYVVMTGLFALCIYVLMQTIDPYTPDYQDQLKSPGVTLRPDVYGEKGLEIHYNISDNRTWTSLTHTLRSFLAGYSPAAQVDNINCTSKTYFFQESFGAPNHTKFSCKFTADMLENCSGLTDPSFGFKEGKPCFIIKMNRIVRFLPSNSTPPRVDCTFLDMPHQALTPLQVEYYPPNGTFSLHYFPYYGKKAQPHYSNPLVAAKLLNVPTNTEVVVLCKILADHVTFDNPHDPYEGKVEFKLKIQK
Description: Isolated H^+ /K^+ ATPase Assay
Using the procedures described in Eibl, H. et al., Analytical Biochemistry 30, 51 (1969), Ganser, A. L. et al., Biochem. Biophys. Acta 307, 169 (1973), and Beil, W. et al., Br. J. Pharmac. 82, 651 (1984), the example compounds were tested for their ability to inhibit the H^+ /K^+ ATPase enzyme in the vesicular membranes from rabbit gastric mucosa. The H^+ /K^+ ATPase enzyme activity is present in microsomes prepared from a crude homogenate of rabbit gastric mucosa using differential centrifugation.
Assays were conducted in duplicate tubes in a 1 mL reaction volume consisting of 50 mM Tris buffer, 2mM MgCl2, ±10 mM KCl, 10 μl of example compound in dimethylsulfoxide and 20-30 μg of protein. The tubes were preincubated for 10 minutes in a 37° C. shaking water bath before the substrate, (Na2 ATP) was added. The mixture was then incubated for 15 minutes at 37° C. The reaction was stopped with 1 mL of 14% TCA and the tubes were centrifuged at 2000 rpm for 10 minutes.
The amount of inorganic phosphate (Pi) present in each sample was compared to a potassium phosphate standard curve.

[2] = tested on: stimulated parietal cells; assay: Isolated Parietal Cell Assay: inhibition of 14C-aminopyrine accumulation in stimulated parietal cells; assay type: cell-based, rabbit; details: 37° C.
Description: Isolated Parietal Cell Assay Using the procedures described in Batzri, S. et al., Biochemica et Biophysica Acta 508, 328 (1978), and Soll, H., Am. J. Physiol. 238, […] (1980), the example compounds were tested for their ability to inhibit ^14 C-aminopyrine accumulation in stimulated parietal cells. Parietal cells were isolated from the fundic mucosa of rabbit stomachs by a four-stage collagenese digestion process. The supernatant fraction from the last two stages of this process contain the individual parietal cells. This cell suspension was centrifuged and reconstituted in a modified Hank's buffer to contain 1-2×10^6 cells/ml. […] […] […] The flasks were incubated in a shaking water bath at 37° C. and gassed with 95% O2, 5% CO2 for 20 minutes. Three aliquots were then taken from each flask, and cell pellets were collected by centrifugation. The pellets were then solubilized with Protosol (NEN) and the radioactivity determined by liquid scintillation spectrometry.

[3] = Oryctolagus cuniculus, 20 min, DcAMP, read-out: Antisecretory Activity in Parietal Cell Assay, DcAMP (IC50)
[4] = Oryctolagus cuniculus, 20 min, HI, histamine-stimulated, read-out: Antisecretory Activity in Parietal Cell Assay, HI (IC50)

Molecule | IC50 [1] | IC50 [2, 3] | IC50 [2, 4] | IC50 ([2]; DcAMP, 20 minutes, read-out: Antisecretory Activity in Parietal Cell Assay, DcAMP (IC50)) | IC50 ([2]; HI, histamine-stimulated, 20 minutes, read-out: Antisecretory Activity in Parietal Cell Assay, HI (IC50))
COc1c(C)cnc(Cn2c(SCC[C@@H](C)CCC=C(C)C)nc3ccccc32)c1C [Example 9, 1-(3,5-Dimethyl-4-methoxy-2-pyridylmethyl)-2-[(3,7-dimethyl-6-octen-1-yl)thio]-1H-1,3-benzimidazole Monooxalate] | 3000 nM | 1250 nM | 2000 nM | – | –
CSc1ccc(-c2nc3ccccc3n2C/C=C(\C)CCC=C(C)C)cc1 [Example 21, 1-(3,7-Dimethyl-2,6(E)-octadienyl)-2-(4-methylthiophenyl)-1H-1,3-benzimidazole Monooxalate.H2 O] | 860 nM | 3000 nM | 40000 nM | – | –
CC(C)=CCC/C(C)=C\CSc1nc2ccccc2[nH]1 [Example 11, 2-[(3,7-Dimethyl-2,6(Z)-octadienyl)-thio]-1H-1,3-benzimidazole.1/4Hydrate] | – | 3100 nM | 2800 nM | – | –
5 (and 6)-Chloro-2-methyl-1-(3,7-dimethyl-2,6(E)-octadienyl)-1H-1,3-benzimidazoleMonohydrochloride.1/4H2 O [Example 20] | 10000 nM | – | – | 1600 nM | 430 nM
CCCCCCCCSc1nc2cc(Cl)ccc2[nH]1 [Example 14, 5-Chloro-2-octylthio-1H-1,3-benzimidazole] | – | – | 2400 nM | – | –
COc1c(C)cnc(Cn2c(SC/C=C(\C)CCC=C(C)C)nc3ccccc32)c1C [Example 5, 1-(3,5-Dimethyl-4-methoxy-2-pyridylmethyl)-2-[(3,7-dimethyl-2,6(E)-octadienyl)thio]-1H-1,3-benzimidazole Monooxalate Hemihydrate] | 3200 nM | 19000 nM | 4000 nM | – | –
CC(C)=CCC/C(C)=C/Cn1c(CO)nc2ccccc21 [Example 19, 1-[3,7-Dimethyl-2,6(E)-octadienyl]-2-hydroxymethyl-1H-1,3-benzimidazole Hydrochloride.1/4H2 O] | 15000 nM | 3300 nM | 2000 nM | – | –
CC(C)=CCC/C(C)=C/CSCc1ccccn1 [Example 15, 2-[3,7-Dimethyl-2,6(E)octadienylthiomethyl]pyridine.1/10 Hydrate] | 9600 nM | 2900 nM | 2400 nM | – | –
CC(C)=CCC/C(C)=C/CSc1nc2cc(Cl)ccc2[nH]1 [Example 2, 5-Chloro-2-[(3,7-dimethyl-2,6(E)-octadienyl)-thio]-1H-1,3-benzimidazole] | 5000 nM | 3500 nM | 2300 nM | – | –
CC(C)=CCCC(C)CC[S+]([O-])c1nc2ccccc2[nH]1 (single isomer, unassigned; (+)) [Example 8, (+)-2-[(3,7-Dimethyl-6-octen-1-yl)sulfinyl]-1H-1,3-benzimidazole Monooxalate] | 72000 nM | 33300 nM | 40000 nM | – | –
CC(C)=CCC/C(C)=C/CSc1nc2cc(F)c(Cl)cc2[nH]1 [Example 3, 6-Chloro-5-fluoro-2-[(3,7-dimethyl-2,6(E)-octadienyl)thio]-1H-1,3-benzimidazole.1/4Hydrate] | 5600 nM | 2300 nM | 3100 nM | – | –
CC(C)=CCC[C@H](C)CCSc1nc2ccccc2[nH]1 [Example 7, 3S(+)-2-[(3,7-Dimethyl-6-octen-1-yl)thio]-1H-1,3-benzimidazole] | – | 2200 nM | 2200 nM | – | –

Next, values leading:

IC50 [1] | IC50 [2, 3] | IC50 [2, 4] | IC50 ([2]; DcAMP, 20 minutes, read-out: Antisecretory Activity in Parietal Cell Assay, DcAMP (IC50)) | IC50 ([2]; HI, histamine-stimulated, 20 minutes, read-out: Antisecretory Activity in Parietal Cell Assay, HI (IC50)) | Molecule
28000 nM | 860 nM | 800 nM | – | – | COc1ccc2ncn(C/C=C(\C)CCC=C(C)C)c2c1 [Example 18, 1-(3,7-Dimethyl-2,6(E)-octadienyl)-6-methoxy-1H-1,3-benzimidazole Monooxalate]
– | 2150 nM | 1300 nM | – | – | CC(C)=CCC/C(C)=C/CSc1nc2ccccc2[nH]1 [Example 1, 2-[(3,7-Dimethyl-2,6(E)-octadienyl)-thio]-1H-1,3-benzimidazole]
– | – | 1300 nM | – | – | CCCCCCCCSc1nc2cc(OC)ccc2[nH]1 [Example 13, 5-Methoxy-2-octylthio-1H-1,3-benzimidazole Hemioxalate Monohydrate]
– | 1000 nM | 1900 nM | – | – | CCCCCCCCSc1nc2ccccc2[nH]1 [Example 12, 2-Octylthio-1H-1,3-benzimidazole]
– | 510 nM | 460 nM | – | – | CC(C)=CCC/C(C)=C/CSc1nc2cc(C(F)(F)F)ccc2[nH]1 [Example 6, 5-Trifluoromethyl-2-[(3,7-dimethyl-2,6(E)-octadienyl)thio]-1H-1,3-benzimidazole]
– | 1100 nM | 1700 nM | – | – | CC(C)=CCC/C(C)=C\CSc1nc2ccccc2n1C/C=C(/C)CCC=C(C)C [Example 10, 1-(3,7-Dimethyl-2,6(Z)-octadienyl)-2-[(3,7-dimethyl-2,6(Z)-octadienyl)-thio]-1H-1,3-benzimidazole Monooxalate]
– | 2100 nM | 700 nM | – | – | COc1ccc2[nH]c(SC/C=C(\C)CCC=C(C)C)nc2c1 [Example 4, 2-[(3,7-Dimethyl-2,6(E)-octadienyl)thio]-5-methoxy-1H-1,3-benzimidazole Monooxalate]
– | 1100 nM | 1700 nM | – | – | CC(C)=CCC[C@H](C)CCSc1nccn1C [Example 17, 3S-2-[(3,7-Dimethyl-6-octen-1-yl)thio]-1-methylimidazole]
